{"source": "patent US6582714B1", "about": "“Article for insert control by passive evaporation of an active ingredient” (priority 1995, dated 2003)", "key": {"A. aegypti mosquitoes [1]": {"test_system": "A. aegypti mosquitoes", "test": "Chamber test, first series (box fan), mosquito repellency and knock-down", "type": "in vivo", "conditions": "at least 50% repellency within 20 minutes with not more than a gram", "excerpt": "(§1) The chamber test protocol was developed to realistically model actual use conditions for the insect control article of the invention. A closed, generally featureless, approximately 28 m^3, box-like test chamber is used, the size of a small room. Six mosquito knock-down cages are distributed vertically within the test chamber, suspended from poles adjacent to opposite test chamber side walls, where they can be observed from outside the test chamber through chamber windows. Mosquitoes in the cages are observed during a test to evaluate the ability of a material being tested to knock down mosquitoes. An insect “knocked down” is one that is incapable of flying and usually is moribund in appearance. The insect may or may not actually be dead. The knock-down cages are cylindrical, approximately 6 cm long and 8 cm in diameter, and have screened but otherwise open ends.\n(§2) Two repellency mosquito cages are also provided. The repellency cages are box-like screened cages, approximately 73 cm long and 16 cm square in cross section. All of the walls of the repellency cages are screened but otherwise generally open. Each repellency cage is divided by a clear plastic partition into a first holding area, which occupies approximately 45 cm of the length of the cage, and a second holding area, which occupies the remaining 28 cm. The plastic partition has a 4 cm diameter hole in its center that provides the only route by which mosquitoes may pass between the two holding areas. The repellency cages are mounted in a test chamber wall, with the plastic partition located in the plane of the test chamber wall, and are so oriented that the first holding area projects inwardly, into the test chamber, while the second holding area projects through the test chamber wall, out into normal room air.\n(§3) A mouse cage essentially identical to a mosquito knock-down cage is mounted on the end of the first holding chamber of each repellency test cage that faces toward the interior of the test chamber. The mouse cage is separated from the repellency cage only by a mosquito-proof screen. One mouse is placed in the mouse cage during a test to provide an attractant for mosquitoes being held in the repellency test cage. Mosquitoes in the first holding area of a repellency cage thus are attracted toward the mouse, on the one hand, and repelled by the insect control article being tested, on the other hand.\n(§4) When a test is run, fifty female mosquitoes are placed in the first holding area of each mosquito cage, with the partition hole closed by a removable door. Ten female mosquitoes are placed in each knock-down cage. The insect control article to be tested is placed centrally within the test chamber and the air flow is initiated. At timed intervals up to a total testing period of two hours, each knock-down cage and each repellency cage is visually examined, and the location, number, and condition of the mosquitoes are noted. The number of mosquitoes that have been driven to the second holding area provides a measure of the repellency of the insect control article being tested. The number of mosquitoes knocked down in the knock-down cages is also recorded. The general success of an insect control article is judged by both the mosquitoes repelled and those knocked down, in that both effects reduce the total number of mosquitoes available for biting.\nTwo series of tests were run using the chamber test protocol to evaluate the effect of insect control articles made in accordance with the invention. […]"}, "A. aegypti mosquitoes [2]": {"test_system": "A. aegypti mosquitoes", "test": "Chamber test, second series (small blower, 0.06 m^3 per minute)", "type": "in vivo", "excerpt": "as §1, §2, §3, §4\nIn an additional series of tests using the chamber protocol, two insect control active ingredients were tested for their ability to achieve the preferred practical control level, defined above. The experiment of the first series was substantially repeated except that the substrate was a 0.5 cm thick, 4.5 cm diameter coil of common corrugated cardboard, with the channels of the corrugation presented endwardly to the direction of air flow. […]"}, "A. aegypti mosquitoes [3]": {"test_system": "A. aegypti mosquitoes", "test": "Olfactometer test (repellency from target air stream)", "type": "in vivo", "excerpt": "The olfactometer test provides a means for measuring the effect of a volatile active ingredient on flying insects under precisely controlled conditions. Mosquitoes are used as the test insect. In this and the other Examples, below, the mosquitoes were A. aegypti. The olfactometer used for the olfactory tests described below generates two uniform, laminar flow air streams. These air streams consist of a target air stream superimposed upon and centered within a carrier air stream.\nThe olfactometer provides a square testing surface with an area of 929 cm^2. The testing area consists of a circular target area of 42 cm^2 centered on a square background surface area of 887 cm^2. In the tests described, a 200 ml/min flow of carbon dioxide was introduced into the carrier air stream to activate the mosquitoes. […] The flow rate of the carrier air stream was 300 to 350 liters/min. […] Elevated temperature and humidity at the level described for the target air stream are known to be attractive to mosquitoes. The flow rate of the target air stream was 12 liters/min.\nThe olfactometer has an air flow duct through which the carrier air flow strewn passes. A glass cylinder having one closed and one open end, an internal diameter of 6 cm and a depth of 14 cm is located within the air flow duct, with the longitudinal axis of the glass cylinder oriented parallel to the direction of flow of the carrier air flow stream, with the open end of the cylinder pointing down stream. The target air stream is generated by releasing a flow of temperature and humidity conditioned air into the glass cylinder near its closed end, from which point the air flows the length of the glass cylinder to exit at its open end.\nActive insect control ingredients to be tested are impregnated in a filter paper test substrate (Grade 615 from VWR Scientific Inc.) having a length of 28 cm and a width of 10 cm. The filter paper test substrate is folded into a fluted cylinder and inserted coaxially within the glass cylinder to rest at a location between the point where the air is released into the glass cylinder and the open end of the glass cylinder. By this arrangement, the target air stream is caused to pass over the surface of the filter paper test substrate so that any active insect control ingredient present in the filter paper test substrate may evaporate into the target air stream before the target air stream exits the glass cylinder to continue, embedded within the flow of the carrier air stream.\nCubic test cages having 30.5 cm edges were constructed of four glass panels, with two opposing sides of the cubic test cages being open. One open side was designated the test panel and was covered with an airflow-transmitting, mosquito-retaining mesh. The opposite open side was covered with a closeable sleeve made of a tubular, open-weave, mosquito-retaining fabric well known in the art as “stockinet.” For any given test, the test cage normally contained from 250 to 350 female mosquitoes.\nThe test cage was placed in the air stream with the test panel facing and perpendicular to the direction of flow of the air streams of the olfactometer. In order to allow the mosquitoes to become activated by the carbon dioxide of the air streams, the test cage first was placed in the olfactometer for an initial 5 minute conditioning exposure. The test cage then was removed from the olfactometer for 3 minutes and then placed back in the olfactometer for a second 5 minute conditioning exposure. The test cage was again removed from the olfactometer for 3 minutes, during which time a control filter paper test substrate was inserted within the glass cylinder of the olfactometer. The test cage was then placed on the olfactometer for a 10 minute control exposure. The same procedure was repeated, using each time a filter paper test substrate impregnated with increasing amounts of active insect control ingredient. […]"}, "[4]": {"test": "Volatility index calculation (concentration in air from vapor pressure)", "type": "physicochemical"}, "A. aegypti mosquitoes [5]": {"test_system": "A. aegypti mosquitoes", "test": "Activity index calculation (volatility index x weight index)", "conditions": "volatility index multiplied by weight index; DEET = 1.00", "experimental": "The “activity index” is obtained by the multiplying the volatility index and the weight index. The activity index is an attempt to predict the combined effect of volatility and potency by weight in the usefulness of an insect control active ingredient for insect control of flying insects by passive evaporation. The following activity indices were calculated from the volatility and weight indices given, above: […]"}, "[6]": {"conditions": "0.072 gm applied directly to the nine blades of the small blower, 0.06 m^3 per minute, two hour testing period"}, "[7]": {"conditions": "0.5 cm thick, 4.5 cm diameter corrugated cardboard coil, blower 0.06 m^3 per minute, two hour test, NA = not achieved"}}}
{"smiles": "CC1(C)[C@H](C=C(Cl)Cl)[C@H]1C(=O)OCc1c(F)c(F)cc(F)c1F", "note": "[Transfluthrin]", "values": [{"measurement": "practical insect control as defined (minimum practical control standard)", "setting": "A. aegypti mosquitoes [1]", "result": "achieved"}, {"measurement": "KD50", "setting": "A. aegypti mosquitoes [2]; [6]", "result": "never achieved"}, {"measurement": "RD50", "setting": "A. aegypti mosquitoes [2]; [6]", "result": "never achieved"}, {"measurement": "RD90", "setting": "A. aegypti mosquitoes [2]; [6]", "result": "never achieved"}, {"measurement": "Minutes to KD50", "setting": "A. aegypti mosquitoes [2]; [7]", "result": 20, "unit": "min"}, {"measurement": "Minutes to RD50", "setting": "A. aegypti mosquitoes [2]; [7]", "result": 30, "unit": "min"}, {"measurement": "Minutes to RD90", "setting": "A. aegypti mosquitoes [2]; [7]", "result": 80, "unit": "min"}, {"measurement": "mg to reach RD90", "setting": "A. aegypti mosquitoes [3]; dose at which 90% of control population driven from target, 28 x 10 cm filter paper, female mosquitoes", "result": "0.57 milligrams/filter paper test substrate"}, {"measurement": "WEIGHT INDEX", "setting": "A. aegypti mosquitoes [3]; ratio of weight of ingredient versus weight of DEET to achieve RD90, 25° C.", "result": 0.0059}, {"measurement": "CONCENTRATION IN AIR", "setting": "[4]; calculated from vapor pressure by ideal gas equation, 20 to 25° C.", "result": "6.09 × 10^−8 grams per liter"}, {"measurement": "VOLATILITY INDEX", "setting": "[4]; concentration in the air relative to DEET at 20 to 25° C.", "result": 0.0035}, {"measurement": "ACTIVITY INDEX", "setting": "A. aegypti mosquitoes [5]", "result": 0.00002}]}
